From article PMC9346089 (The FEBS journal, 2022) come the findings set out here.

Details in all cases: 5 uM vitamin K epoxide in medium; HEK293 VKORC1/VKORL1 knockout
The subject of one experiment is S3-TM5/Trx. Description: cell-based gamma-carboxylation reporter. More on the design: species or system Synechococcus sp. JA-2-3B'a(2-13).
The test system of another experiment is S3. Description: cell-based gamma-carboxylation reporter. The arrangement: species or system Synechococcus sp. JA-2-3B'a(2-13).
The subject of the next experiment is M1.
The next experiment deals with M2.

Usually IC50 stands for the point on the concentration scale where inhibition reaches its midpoint. As for `CC(=O)CC(c1ccccc1)c1c(O)c2ccccc2oc1=O` (stereo not shown) [warfarin], the IC50 in the experiment on S3-TM5/Trx was 1110 nM; with S3, 190 nM; in the experiment with M1 it was 400 nM; in the experiment with M2 it was 1870 nM.
